Assay: Degreasing effect on a soiled white painted metal plate (non-mechanical cleaning)
Conditions: 1:40 dilution in water, poured over painted metal plate soiled with train engine grease, rinsed with tap water
Procedure: The degreasing effect of the test formulations was assessed on a white painted metal plate soiled uniformly with a tough-to-clean greasy soil collected from a train engine. The cleaning formulation (1:40 dilution in water) was applied simply by pouring it over the surface (non-mechanical cleaning). After a short time interval, the whole plate was rinsed with tap water and cleaning performance was assessed quantitatively. The results are tabulated below and depicted in FIG. 1A (for the respective cleaning formulations A, B, and C containing no NaOH) and FIG. 1B. (for the respective cleaning formulations D, E, and F containing 2% NaOH).

## C12/14 alkyl methylamine ethoxylate N-Oxide
  Cleaning Performance: performs as well as the comparison hydrotrope

Source: US20250382549A1, “MULTIFUNCTIONAL N-OXIDE HYDROTROPES, CLEANING FORMULATIONS CONTAINING THEM AND USE THEREOF” (NOURYON CHEMICALS INTERNATIONAL B.V., priority 2022, published 2025)
